Results published in ChEMBL document CHEMBL4732209, “Indole scaffolds as a promising class of the aryl hydrocarbon receptor ligands” (Eur J Med Chem, 2021).

Tests used:
[1] = biological target: T1, Aryl hydrocarbon receptor (Homo sapiens, UniProt P35869); assay: Agonist activity at AHR in human HepG2 cells incubated for 4.5 hrs by Luciferase reporter assay; format: cell-based
T1 sequence (P35869 whole entry): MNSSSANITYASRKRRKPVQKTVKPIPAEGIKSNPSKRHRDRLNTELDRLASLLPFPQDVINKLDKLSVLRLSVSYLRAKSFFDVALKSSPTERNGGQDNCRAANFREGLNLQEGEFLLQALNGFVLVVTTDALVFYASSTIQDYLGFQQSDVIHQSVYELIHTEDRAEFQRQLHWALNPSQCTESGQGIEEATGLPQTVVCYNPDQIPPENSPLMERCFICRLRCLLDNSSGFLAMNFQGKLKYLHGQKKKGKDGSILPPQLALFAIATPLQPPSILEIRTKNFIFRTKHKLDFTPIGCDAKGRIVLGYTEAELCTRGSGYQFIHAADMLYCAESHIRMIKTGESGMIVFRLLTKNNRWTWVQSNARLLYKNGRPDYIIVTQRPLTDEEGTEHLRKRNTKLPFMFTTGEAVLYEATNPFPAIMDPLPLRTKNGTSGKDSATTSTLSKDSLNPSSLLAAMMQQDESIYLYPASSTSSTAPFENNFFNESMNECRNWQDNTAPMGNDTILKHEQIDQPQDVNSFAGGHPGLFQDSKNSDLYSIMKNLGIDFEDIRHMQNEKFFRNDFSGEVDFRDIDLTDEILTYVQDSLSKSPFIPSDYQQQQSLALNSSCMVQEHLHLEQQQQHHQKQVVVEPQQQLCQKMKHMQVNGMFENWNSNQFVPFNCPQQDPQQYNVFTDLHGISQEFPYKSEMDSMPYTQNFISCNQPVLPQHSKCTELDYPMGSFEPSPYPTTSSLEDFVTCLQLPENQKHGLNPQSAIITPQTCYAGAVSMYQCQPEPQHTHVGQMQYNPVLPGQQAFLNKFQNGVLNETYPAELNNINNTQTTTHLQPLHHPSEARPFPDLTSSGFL

[2] = biological target: T1, Aryl hydrocarbon receptor; assay: Agonist activity at AHR in human MDA-MB-468 cells incubated for 24 hrs by Western blot analysis; format: cell-based
[3] = biological target: T1, Aryl hydrocarbon receptor; assay: Agonist activity at AHR in human AZ-AHR stable HepG2 cells by Luciferase reporter assay

SMILES	EC50 [1] [nM]	EC50 [2] [nM]	EC50 [3] [nM]
O=C(c1cccc(C(F)(F)F)n1)c1c[nH]c2ccccc12	2	–	–
Brc1c(Br)c(Br)c2c([nH]c3c(Br)c(Br)c(Br)c(Br)c32)c1Br	–	< 1000	–
CCOn1c(C(O)(c2ccncc2)c2cc3ccccc3[nH]2)cc2ccccc21 (stereo unspecified)	–	–	1600
Clc1c(Cl)c(Cl)c2c([nH]c3c(Cl)c(Cl)c(Cl)c(Cl)c32)c1Cl	–	< 1000	–
OC(c1ccncc1)(c1cc2ccccc2[nH]1)c1cc2ccccc2[nH]1	–	–	1600
N#Cc1cccc(C(=O)c2c[nH]c3ccccc23)n1	2	–	–
